Test results reported in the kinase profiling compilation of Christmann-Franck et al. (2016).

Tests used:
Test in all cases: radiometric filter-binding kinase assay, Kinase HotSpot
Conditions in all cases: compound 0.5 µM; ATP 10 µM
EPHA3 (human) = EPHA3 (human) (UniProt P29320)
SRPK3 (human) = SRPK3 (human) (UniProt Q9UPE1)
PTK2 (human) = PTK2 (human) (UniProt Q05397)
FYN (human) = FYN (human) (UniProt P06241)
NEK7 (human) = NEK7 (human) (UniProt Q8TDX7)
TGFBR2 (human) = TGFBR2 (human) (UniProt P37173)
TTK (human) = TTK (human) (UniProt P33981)
CSNK1G2 (human) = CSNK1G2 (human) (UniProt P78368)
IKBKE (human) = IKBKE (human) (UniProt Q14164)
EPHA8 (human) = EPHA8 (human) (UniProt P29322)
CDC42BPB (human) = CDC42BPB (human) (UniProt Q9Y5S2)
CAMK2G (human) = CAMK2G (human) (UniProt Q13555)
PAK2 (human) = PAK2 (human) (UniProt Q13177)
ADRBK2 (human) = ADRBK2 (human) (UniProt P35626)
PTK6 (human) = PTK6 (human) (UniProt Q13882)
NUAK2 (human) = NUAK2 (human) (UniProt Q9H093)
SLK (human) = SLK (human) (UniProt Q9H2G2)
NEK1 (human) = NEK1 (human) (UniProt Q96PY6)
MAPK9 (human) = MAPK9 (human) (UniProt P45984)
PRKG2 (human) = PRKG2 (human) (UniProt Q13237)
PIM1 (human) = PIM1 (human) (UniProt P11309)
MET (human) = MET (human) (UniProt P08581)
MAP4K5 (human) = MAP4K5 (human) (UniProt Q9Y4K4)
FGFR1 (human) = FGFR1 (human) (UniProt P11362)
CAMK2A (human) = CAMK2A (human) (UniProt Q9UQM7)
EPHA2 (human) = EPHA2 (human) (UniProt P29317)
MUSK (human) = MUSK (human) (UniProt O15146)
RIPK2 (human) = RIPK2 (human) (UniProt O43353)
HCK (human) = HCK (human) (UniProt P08631)
INSR (human) = INSR (human) (UniProt P06213)
MARK1 (human) = MARK1 (human) (UniProt Q9P0L2)
NTRK3 (human) = NTRK3 (human) (UniProt Q16288)
STK24 (human) = STK24 (human) (UniProt Q9Y6E0)
NEK6 (human) = NEK6 (human) (UniProt Q9HC98)
PRKX (human) = PRKX (human) (UniProt P51817)
PRKCB1 (human) = PRKCB1 (human) (UniProt P05771)
MATK (human) = MATK (human) (UniProt P42679)
MST4 (human) = MST4 (human) (UniProt Q9P289)
RPS6KA6 KD1 KD2 (human) = RPS6KA6 KD1 KD2 (human) (UniProt Q9UK32)
OXSR1 (human) = OXSR1 (human) (UniProt O95747)
CAMK4 (human) = CAMK4 (human) (UniProt Q16566)
DYRK3 (human) = DYRK3 (human) (UniProt O43781)

NEK1 (human), sequence (Q96PY6 whole entry, looked up): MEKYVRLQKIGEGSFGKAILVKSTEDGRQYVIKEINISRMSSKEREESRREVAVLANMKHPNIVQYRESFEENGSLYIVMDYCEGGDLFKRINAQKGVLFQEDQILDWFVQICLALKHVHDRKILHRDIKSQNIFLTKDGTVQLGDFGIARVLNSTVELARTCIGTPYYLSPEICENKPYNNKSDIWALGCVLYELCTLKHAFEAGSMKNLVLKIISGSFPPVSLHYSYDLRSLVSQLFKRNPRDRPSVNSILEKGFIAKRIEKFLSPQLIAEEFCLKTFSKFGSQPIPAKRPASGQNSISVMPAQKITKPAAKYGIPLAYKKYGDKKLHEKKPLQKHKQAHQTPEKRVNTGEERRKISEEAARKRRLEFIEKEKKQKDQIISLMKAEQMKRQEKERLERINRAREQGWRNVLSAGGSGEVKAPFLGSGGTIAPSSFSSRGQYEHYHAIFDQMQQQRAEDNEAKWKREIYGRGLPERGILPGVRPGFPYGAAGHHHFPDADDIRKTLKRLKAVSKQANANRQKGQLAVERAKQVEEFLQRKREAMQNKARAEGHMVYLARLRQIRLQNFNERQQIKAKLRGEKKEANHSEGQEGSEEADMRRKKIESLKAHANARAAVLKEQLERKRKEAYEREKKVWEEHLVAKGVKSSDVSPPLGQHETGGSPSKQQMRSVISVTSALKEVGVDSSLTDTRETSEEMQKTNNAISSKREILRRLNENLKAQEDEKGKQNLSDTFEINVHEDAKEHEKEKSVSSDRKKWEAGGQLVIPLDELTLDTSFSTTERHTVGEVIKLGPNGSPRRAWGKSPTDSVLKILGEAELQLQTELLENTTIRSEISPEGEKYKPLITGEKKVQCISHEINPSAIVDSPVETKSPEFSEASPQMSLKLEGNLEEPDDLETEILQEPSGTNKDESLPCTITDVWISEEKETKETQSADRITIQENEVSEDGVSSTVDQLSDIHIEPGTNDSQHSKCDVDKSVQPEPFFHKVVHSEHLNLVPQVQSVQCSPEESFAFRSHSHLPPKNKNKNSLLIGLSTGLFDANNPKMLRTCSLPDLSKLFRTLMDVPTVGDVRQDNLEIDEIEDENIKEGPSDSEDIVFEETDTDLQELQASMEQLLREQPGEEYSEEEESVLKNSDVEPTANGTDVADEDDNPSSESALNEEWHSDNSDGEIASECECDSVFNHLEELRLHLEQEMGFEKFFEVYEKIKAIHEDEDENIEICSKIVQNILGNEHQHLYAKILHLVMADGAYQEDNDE
SLK (human), sequence (Q9H2G2 whole entry, looked up): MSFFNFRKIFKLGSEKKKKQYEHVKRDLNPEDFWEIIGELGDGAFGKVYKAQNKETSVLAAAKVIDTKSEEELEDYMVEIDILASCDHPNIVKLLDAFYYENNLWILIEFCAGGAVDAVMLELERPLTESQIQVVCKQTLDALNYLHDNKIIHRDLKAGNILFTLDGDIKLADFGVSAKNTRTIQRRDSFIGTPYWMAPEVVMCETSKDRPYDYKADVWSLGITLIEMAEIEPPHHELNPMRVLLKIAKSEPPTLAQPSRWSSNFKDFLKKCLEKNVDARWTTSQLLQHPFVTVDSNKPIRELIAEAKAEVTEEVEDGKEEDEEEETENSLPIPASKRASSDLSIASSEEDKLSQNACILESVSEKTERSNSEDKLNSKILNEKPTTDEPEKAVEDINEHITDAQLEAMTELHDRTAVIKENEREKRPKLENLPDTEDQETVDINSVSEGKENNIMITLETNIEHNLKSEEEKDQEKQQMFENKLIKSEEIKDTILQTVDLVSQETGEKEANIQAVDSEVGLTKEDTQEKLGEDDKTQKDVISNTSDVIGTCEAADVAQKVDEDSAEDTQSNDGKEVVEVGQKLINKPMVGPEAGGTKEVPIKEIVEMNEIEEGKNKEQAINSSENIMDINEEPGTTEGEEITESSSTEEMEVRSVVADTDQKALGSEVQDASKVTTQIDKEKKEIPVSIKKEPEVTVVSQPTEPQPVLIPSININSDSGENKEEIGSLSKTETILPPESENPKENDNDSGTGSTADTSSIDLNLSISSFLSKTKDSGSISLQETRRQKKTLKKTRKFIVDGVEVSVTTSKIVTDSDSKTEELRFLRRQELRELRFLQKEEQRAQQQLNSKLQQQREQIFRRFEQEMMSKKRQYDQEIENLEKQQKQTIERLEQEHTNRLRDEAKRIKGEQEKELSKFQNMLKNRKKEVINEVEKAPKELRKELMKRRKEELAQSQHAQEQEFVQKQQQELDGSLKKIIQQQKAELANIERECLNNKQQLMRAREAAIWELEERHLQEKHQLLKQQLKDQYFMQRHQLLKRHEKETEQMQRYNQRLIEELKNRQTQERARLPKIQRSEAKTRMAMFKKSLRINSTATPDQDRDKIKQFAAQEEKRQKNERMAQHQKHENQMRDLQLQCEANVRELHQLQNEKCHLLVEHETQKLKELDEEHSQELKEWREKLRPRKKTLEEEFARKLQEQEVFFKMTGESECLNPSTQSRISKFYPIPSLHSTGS
MAP4K5 (human), sequence (Q9Y4K4 whole entry, looked up): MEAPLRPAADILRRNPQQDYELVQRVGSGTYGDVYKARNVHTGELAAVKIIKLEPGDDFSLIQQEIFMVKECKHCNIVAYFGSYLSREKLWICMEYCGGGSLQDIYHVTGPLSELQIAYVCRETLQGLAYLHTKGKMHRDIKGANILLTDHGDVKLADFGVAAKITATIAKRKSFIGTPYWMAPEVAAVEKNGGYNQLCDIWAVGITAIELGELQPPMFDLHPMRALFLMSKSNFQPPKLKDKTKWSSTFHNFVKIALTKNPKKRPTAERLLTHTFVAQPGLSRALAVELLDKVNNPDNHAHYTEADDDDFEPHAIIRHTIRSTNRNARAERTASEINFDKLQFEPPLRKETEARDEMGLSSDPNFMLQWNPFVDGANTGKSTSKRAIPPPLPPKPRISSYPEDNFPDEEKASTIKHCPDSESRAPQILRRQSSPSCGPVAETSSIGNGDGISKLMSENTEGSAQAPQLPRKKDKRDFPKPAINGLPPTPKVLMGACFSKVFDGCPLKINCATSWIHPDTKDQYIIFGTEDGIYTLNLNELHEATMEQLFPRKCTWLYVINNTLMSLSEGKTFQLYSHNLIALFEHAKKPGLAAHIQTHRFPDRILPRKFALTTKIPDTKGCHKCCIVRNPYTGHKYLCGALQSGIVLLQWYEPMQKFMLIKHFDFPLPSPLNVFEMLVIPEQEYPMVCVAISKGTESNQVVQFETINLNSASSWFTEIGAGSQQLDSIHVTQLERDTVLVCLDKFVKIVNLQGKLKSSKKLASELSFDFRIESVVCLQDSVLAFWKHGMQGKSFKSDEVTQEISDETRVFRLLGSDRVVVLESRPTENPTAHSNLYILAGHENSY
MUSK (human), sequence (O15146 whole entry, looked up): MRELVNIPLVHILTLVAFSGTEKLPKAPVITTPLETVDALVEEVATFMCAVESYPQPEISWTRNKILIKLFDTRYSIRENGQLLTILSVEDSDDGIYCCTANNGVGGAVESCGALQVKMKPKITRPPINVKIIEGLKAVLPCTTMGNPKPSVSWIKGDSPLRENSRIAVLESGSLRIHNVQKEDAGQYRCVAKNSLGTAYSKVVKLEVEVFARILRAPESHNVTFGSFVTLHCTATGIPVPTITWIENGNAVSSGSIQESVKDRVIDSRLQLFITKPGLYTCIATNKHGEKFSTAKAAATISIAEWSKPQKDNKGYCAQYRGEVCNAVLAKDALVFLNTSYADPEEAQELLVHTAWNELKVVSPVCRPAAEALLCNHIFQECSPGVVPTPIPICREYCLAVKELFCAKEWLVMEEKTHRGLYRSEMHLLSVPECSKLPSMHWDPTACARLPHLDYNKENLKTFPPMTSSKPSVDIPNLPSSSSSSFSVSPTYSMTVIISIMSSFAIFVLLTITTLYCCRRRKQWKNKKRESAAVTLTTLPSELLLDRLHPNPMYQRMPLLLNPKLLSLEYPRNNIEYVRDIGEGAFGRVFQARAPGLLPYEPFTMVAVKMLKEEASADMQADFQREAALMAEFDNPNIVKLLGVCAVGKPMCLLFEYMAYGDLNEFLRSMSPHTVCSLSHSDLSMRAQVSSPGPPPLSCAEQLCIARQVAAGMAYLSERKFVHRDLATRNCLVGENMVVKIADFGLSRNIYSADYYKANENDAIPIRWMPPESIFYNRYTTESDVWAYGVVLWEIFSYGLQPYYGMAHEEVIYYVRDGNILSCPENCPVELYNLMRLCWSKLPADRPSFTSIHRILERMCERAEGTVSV
IKBKE (human), sequence (Q14164 whole entry, looked up): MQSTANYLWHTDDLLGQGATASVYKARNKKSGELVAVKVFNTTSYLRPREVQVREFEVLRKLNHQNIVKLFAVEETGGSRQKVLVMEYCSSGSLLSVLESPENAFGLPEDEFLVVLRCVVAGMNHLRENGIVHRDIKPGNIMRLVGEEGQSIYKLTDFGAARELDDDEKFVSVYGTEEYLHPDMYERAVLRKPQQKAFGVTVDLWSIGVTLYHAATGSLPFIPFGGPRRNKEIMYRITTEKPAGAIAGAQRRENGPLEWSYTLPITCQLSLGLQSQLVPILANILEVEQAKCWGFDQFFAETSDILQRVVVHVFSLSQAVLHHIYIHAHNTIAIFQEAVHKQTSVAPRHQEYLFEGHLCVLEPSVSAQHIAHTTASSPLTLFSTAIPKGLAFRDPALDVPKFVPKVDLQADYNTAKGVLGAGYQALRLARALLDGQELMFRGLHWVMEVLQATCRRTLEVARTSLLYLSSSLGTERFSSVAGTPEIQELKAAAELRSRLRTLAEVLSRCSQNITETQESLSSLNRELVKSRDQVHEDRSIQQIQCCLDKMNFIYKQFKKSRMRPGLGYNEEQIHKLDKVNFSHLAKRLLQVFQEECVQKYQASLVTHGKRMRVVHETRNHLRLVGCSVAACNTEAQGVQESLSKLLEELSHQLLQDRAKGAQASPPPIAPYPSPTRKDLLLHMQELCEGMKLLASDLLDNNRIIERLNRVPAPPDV

## CO[C@H]1CC2CC[C@@H](C)[C@@](O)(O2)C(=O)C(=O)N2CCCC[C@H]2C(=O)OC([C@H](C)C[C@@H]2CC[C@@H](O)[C@H](OC)C2)CC(=O)[C@H](C)/C=C(\C)[C@@H](O)[C@@H](OC)C(=O)[C@H](C)C[C@H](C)/C=C/C=C/C=C/1C (some centres undefined)
EPHA3 (human)
  residual activity: 109%
SRPK3 (human)
  residual activity: 97.2%
PTK2 (human)
  residual activity: 103%
FYN (human)
  residual activity: 109%
NEK7 (human)
  residual activity: 104%
TGFBR2 (human)
  residual activity: 136%
TTK (human)
  residual activity: 117%
CSNK1G2 (human)
  residual activity: 94.8%
IKBKE (human)
  residual activity: 99.4%
EPHA8 (human)
  residual activity: 92.7%
CDC42BPB (human)
  residual activity: 103%
CAMK2G (human)
  residual activity: 101%
PAK2 (human)
  residual activity: 101%
ADRBK2 (human)
  residual activity: 98%
PTK6 (human)
  residual activity: 88%
NUAK2 (human)
  residual activity: 140%
SLK (human)
  residual activity: 98.7%
NEK1 (human)
  residual activity: 104%
MAPK9 (human)
  residual activity: 98.4%
PRKG2 (human)
  residual activity: 91.9%
PIM1 (human)
  residual activity: 104%
MET (human)
  residual activity: 98.1%
MAP4K5 (human)
  residual activity: 110%
FGFR1 (human)
  residual activity: 89.4%
CAMK2A (human)
  residual activity: 105%
EPHA2 (human)
  residual activity: 107%
MUSK (human)
  residual activity: 87.7%
RIPK2 (human)
  residual activity: 90.5%
HCK (human)
  residual activity: 102%
INSR (human)
  residual activity: 90.3%
MARK1 (human)
  residual activity: 98.8%
NTRK3 (human)
  residual activity: 103%
STK24 (human)
  residual activity: 93.5%
NEK6 (human)
  residual activity: 97.7%
PRKX (human)
  residual activity: 95.6%
PRKCB1 (human)
  residual activity: 102%
MATK (human)
  residual activity: 92%
MST4 (human)
  residual activity: 113%
RPS6KA6 KD1 KD2 (human)
  residual activity: 118%
OXSR1 (human)
  residual activity: 96.6%
CAMK4 (human)
  residual activity: 99.1%
DYRK3 (human)
  residual activity: 105%

## N#CC(C#N)=C(N)/C(C#N)=C/c1ccc(O)cc1
EPHA3 (human)
  residual activity: 98.3%
SRPK3 (human)
  residual activity: 96.4%
PTK2 (human)
  residual activity: 98.5%
FYN (human)
  residual activity: 98.4%
NEK7 (human)
  residual activity: 98.9%
TGFBR2 (human)
  residual activity: 113%
TTK (human)
  residual activity: 94.4%
CSNK1G2 (human)
  residual activity: 104%
IKBKE (human)
  residual activity: 91%
EPHA8 (human)
  residual activity: 102%
CDC42BPB (human)
  residual activity: 109%
CAMK2G (human)
  residual activity: 89.4%
PAK2 (human)
  residual activity: 86%
ADRBK2 (human)
  residual activity: 96.7%
PTK6 (human)
  residual activity: 84.9%
NUAK2 (human)
  residual activity: 122%
SLK (human)
  residual activity: 102%
NEK1 (human)
  residual activity: 95.7%
MAPK9 (human)
  residual activity: 105%
PRKG2 (human)
  residual activity: 86.9%
PIM1 (human)
  residual activity: 103%
MET (human)
  residual activity: 117%
MAP4K5 (human)
  residual activity: 99.6%
FGFR1 (human)
  residual activity: 95.3%
CAMK2A (human)
  residual activity: 103%
EPHA2 (human)
  residual activity: 100%
MUSK (human)
  residual activity: 103%
RIPK2 (human)
  residual activity: 95.5%
HCK (human)
  residual activity: 98.6%
INSR (human)
  residual activity: 94.2%
MARK1 (human)
  residual activity: 111%
NTRK3 (human)
  residual activity: 95.5%
STK24 (human)
  residual activity: 103%
NEK6 (human)
  residual activity: 97.3%
PRKX (human)
  residual activity: 93.7%
PRKCB1 (human)
  residual activity: 114%
MATK (human)
  residual activity: 92.5%
MST4 (human)
  residual activity: 101%
RPS6KA6 KD1 KD2 (human)
  residual activity: 104%
OXSR1 (human)
  residual activity: 72.2%
CAMK4 (human)
  residual activity: 97.2%
DYRK3 (human)
  residual activity: 97.7%
